Columns and labels:
[1] = system: H460 tumors; assay: Human lung (NSCLC) xenograft, tumor volume
[2] = system: HT1080 tumors; assay: Human fibrosarcoma xenograft, total diameter (tumor + leg)
Experimental: Female athymic nu/nu mice (Harlan Laboratories Models, S.L. Barcelona, Spain or Envigo, Spain) were utilized for all experiments. Animal were housed in individually ventilated cages Sealsafe® Plus, Techniplast S.P.A.), up to ten per cage on a 12-hour light-dark cycle at 21-23° C. and 40-60% humidity. […] Animals were acclimated for at least 5 days prior to tumor implantation with a tumor cell suspension.
HT1080 cells were maintained in vitro at 37° C. with 5% CO2 in Minimum Essential Medium Eagle (MEME) (Sigma-Aldrich, Co). Each animal was orthotopically implanted into gastroecnemius muscle by an intramuscular injection using a 26G needle and a 1 cc syringe at 4-6 weeks of age, with 10×10^6 HT1080 cells, suspended in serum free medium, without antibiotics.
Treatment tolerability was assessed by monitoring body weight evolution, clinical signs of systemic toxicity, as well as evidences of local damage in the injection site.
In xenograft studies with HT1080 cell line: • Total diameter (tumor+leg) measurements were determined by using digital caliper (Fowler Sylvac, S235PAT).
Treatments producing >20% lethality and/or 20% net body weight loss were considered toxic.

[3] = system: HGC27 tumors; assay: Human gastric xenograft, tumor volume
[4] = system: A2780 tumors; assay: Human ovarian xenograft, tumor volume
[5] = system: MDA-MB-231 tumors; assay: Human breast xenograft, tumor volume
[6] = Day 2.0, iv Days 0, 7 and 14, compound C 3.0 mg/kg, 4-S […], 12-S […]
[7] = Day 5.0, iv Days 0, 7 and 14, compound C 3.0 mg/kg, 4-S […], 12-S […]
[8] = Day 7.0, iv Days 0, 7 and 14, compound C 3.0 mg/kg, 4-S […], 12-S […]
[9] = Day 9.0, iv Days 0, 7 and 14, compound C 3.0 mg/kg, 4-S […], 12-S […]
[10] = Day 12.0, iv Days 0, 7 and 14, compound C 3.0 mg/kg, 4-S […], 12-S […]
[11] = Day 14.0, iv Days 0, 7 and 14, compound C 3.0 mg/kg, 4-S […], 12-S […]
[12] = Day 16.0, iv Days 0, 7 and 14, compound C 3.0 mg/kg, 4-S […], 12-S […]
[13] = Day 19.0, iv Days 0, 7 and 14, compound C 3.0 mg/kg, 4-S […], 12-S […]
[14] = Day 21.0, iv Days 0, 7 and 14, compound C 3.0 mg/kg, 4-S […], 12-S […]
[15] = Day 23.0, iv Days 0, 7 and 14, compound C 3.0 mg/kg, 4-S […], 12-S […]

COc1c(C)cc2c(c1O)[C@@H]1[C@@H]3[C@@H]4SC[C@]5(N[C@H](CN)Cc6c5[nH]c5ccccc65)C(=O)OC[C@@H](c5c6c(c(C)c(OC(C)=O)c54)OCO6)N3[C@@H](O)[C@H](C2)N1C [Compound 12-S]
Median Tumor Volume [1, 6]: 460.5 mm^3 | Median Tumor Volume [1, 7]: 922.4 mm^3 | Median Tumor Volume [1, 8]: 1252.1 mm^3 | Median Tumor Volume [1, 9]: 1409.4 mm^3 | Median Tumor Volume [1, 10]: 1531.7 mm^3 | Total diameter (tumor + leg) [2, 6]: 8.2 mm | Total diameter (tumor + leg) [2, 7]: 8.6 mm | Total diameter (tumor + leg) [2, 8]: 9.5 mm | Total diameter (tumor + leg) [2, 9]: 10.0 mm | Total diameter (tumor + leg) [2, 10]: 11.2 mm | Total diameter (tumor + leg) [2, 11]: 11.7 mm | Total diameter (tumor + leg) [2, 12]: 12.7 mm | Total diameter (tumor + leg) [2, 13]: 13.5 mm | Total diameter (tumor + leg) [2, 14]: 14.4 mm | Total diameter (tumor + leg) [2, 15]: 16.5 mm | Median Tumor Volume [3, 6]: 411.9 mm^3 | Median Tumor Volume [3, 7]: 834.1 mm^3 | Median Tumor Volume [3, 8]: 1176.6 mm^3 | Median Tumor Volume [3, 9]: 1531.6 mm^3 | Median Tumor Volume [3, 10]: 2030.2 mm^3 | Median Tumor Volume [4, 6]: 262.1 mm^3 | Median Tumor Volume [4, 7]: 628.6 mm^3 | Median Tumor Volume [4, 8]: 976.3 mm^3 | Median Tumor Volume [4, 9]: 1387.5 mm^3 | Median Tumor Volume [4, 10]: 1666.0 mm^3 | Median Tumor Volume [5, 6]: 229.9 mm^3 | Median Tumor Volume [5, 7]: 290.5 mm^3 | Median Tumor Volume [5, 8]: 398.2 mm^3 | Median Tumor Volume [5, 9]: 508.9 mm^3 | Median Tumor Volume [5, 10]: 602.5 mm^3 | Median Tumor Volume [5, 11]: 751.0 mm^3 | Median Tumor Volume [5, 12]: 977.7 mm^3 | Median Tumor Volume [5, 13]: 1252.6 mm^3 | Median Tumor Volume [5, 14]: 1560.7 mm^3 | Median Tumor Volume [5, 15]: 2005.9 mm^3 | Median Tumor Volume ([5]; Day 26.0, iv Days 0, 7 and 14, compound C 3.0 mg/kg, 4-S […], 12-S […]): 2066.2 mm^3

COc1c(C)cc2c(c1O)[C@@H]1[C@@H]3[C@@H]4SC[C@]5(N[C@@H](CN)Cc6c5oc5ccccc65)C(=O)OC[C@@H](c5c6c(c(C)c(OC(C)=O)c54)OCO6)N3[C@@H](O)[C@H](C2)N1C [Compound 47-R]
Median Tumor Volume ([1]; Day 2): 508.1 mm^3 | Median Tumor Volume ([1]; Day 5): 979.3 mm^3 | Median Tumor Volume ([1]; Day 7): 1280.0 mm^3 | Median Tumor Volume ([1]; Day 9): 1543.1 mm^3 | Median Tumor Volume ([1]; Day 12): 1764.0 mm^3 | Median Tumor Volume ([1]; Day 14): 1845.5 mm^3 | Total diameter (tumor + leg) ([2]; Day 2): 8.9 mm | Total diameter (tumor + leg) ([2]; Day 5): 10.1 mm | Total diameter (tumor + leg) ([2]; Day 7): 10.5 mm | Total diameter (tumor + leg) ([2]; Day 9): 11.5 mm | Total diameter (tumor + leg) ([2]; Day 12): 13.5 mm | Total diameter (tumor + leg) ([2]; Day 14): 13.9 mm | Total diameter (tumor + leg) ([2]; Day 16): 14.6 mm | Total diameter (tumor + leg) ([2]; Day 19): 18.0 mm | Median Tumor Volume ([3]; Day 2): 359.4 mm^3 | Median Tumor Volume ([3]; Day 5): 774.8 mm^3 | Median Tumor Volume ([3]; Day 7): 1155.4 mm^3 | Median Tumor Volume ([3]; Day 9): 1474.7 mm^3 | Median Tumor Volume ([3]; Day 12): 1870.2 mm^3 | Median Tumor Volume ([3]; Day 14): 2031.3 mm^3 | Median Tumor Volume ([3]; Day 16): 2075.2 mm^3 | Median Tumor Volume ([4]; Day 2): 280.6 mm^3 | Median Tumor Volume ([4]; Day 5): 653.9 mm^3 | Median Tumor Volume ([4]; Day 7): 848.7 mm^3 | Median Tumor Volume ([4]; Day 9): 1569.1 mm^3 | Median Tumor Volume ([4]; Day 12): 1764.0 mm^3 | Median Tumor Volume ([4]; Day 14): 1666.0 mm^3 | Median Tumor Volume ([4]; Day 16): 2025.0 mm^3 | Median Tumor Volume ([5]; Day 2): 225.3 mm^3 | Median Tumor Volume ([5]; Day 5): 323.2 mm^3 | Median Tumor Volume ([5]; Day 7): 405.0 mm^3 | Median Tumor Volume ([5]; Day 9): 495.9 mm^3 | Median Tumor Volume ([5]; Day 12): 594.1 mm^3 | Median Tumor Volume ([5]; Day 14): 769.5 mm^3 | Median Tumor Volume ([5]; Day 16): 1009.5 mm^3 | Median Tumor Volume ([5]; Day 19): 1298.0 mm^3 | Median Tumor Volume ([5]; Day 21): 1580.7 mm^3 | Median Tumor Volume ([5]; Day 23): 2006.5 mm^3 | Median Tumor Volume ([5]; Day 26): 2032.1 mm^3
